Data taken from US20250127913A1, “BIFUNCTIONAL FOLATE RECEPTOR BINDING COMPOUNDS” (LYCIA THERAPEUTICS, INC., priority 2021, published 2025).

Tests used:
[1] = molecular target: FOLR2 (Homo sapiens (Human), UniProt P14207); test: SPR binding kinetics of compounds to folate receptor (FOLR2 immobilized on CM5 chip)
Protocol: A Biacore 8K+ was used to measure the association and dissociation rates of example compounds to FOLR2 (Acro Biosystems, Cat: F02-H5223-100 μg). Briefly, FOLR2 was reconstituted according to the manufacture's instructions to 200 μg/mL. Both the active and reference surfaces of a Cytiva CM5 Series S Sensor Chip were activated with a 1:1 mixture of 400 mM EDC and 100 mM NHS for 420 s at 10 μL/min. 25 μg/mL FOLR2 diluted in Sodium Acetate pH 5.5 was injected on the active channel (Flow Cell 2) for 420 s at 10p/min. Both the reference and active surfaces were then capped with 1M ethanolamine, pH 8.5 for 420 s, achieving an immobilization level of ˜4200 RU. Example compounds were serially diluted 1:1 in running buffer (10 mM HEPES, 150 mM NaCl, 0.05% T20, pH 7.5, 2% DMSO) from 100 nM to 3.125 nM and flowed over the active and reference surfaces for 120 s, and then allowed to dissociate in running buffer for 600 s, at 30 uL/min. The FOLR2 immobilized active surface and the reference surface were regenerated with a 30 s pulse of Sodium Acetate pH 5.5 at 30 μL/min. Sensorgrams were solvent corrected, double-referenced, and the data fitted and analyzed in Biacore Insight Evaluation Software Version 3.0.11.15423.

[2] = molecular target: TNFα trimer (Homo sapiens, UniProt P01375); test: SPR binding kinetics of compounds to TNFα trimer; conditions: class symbols
Protocol: Streptavidin 100 μg/mL Streptavidin (Invitrogen Cat #: 434302) diluted in 10 mM sodium acetate, pH 4.5) was immobilized to both the reference and active surfaces as described in Example 51. The surfaces were conditioned with three injections of running Buffer (10 mM HEPES, 150 mMNaCl, 0.05% T20, pH 7.5, 2% DMSO) at a flow rate of 10 μL/min, Contact time: 60 s. Flow rate: 10 μL/min. The active surface was treated with biotinylated linked TNFα trimer 20 μg/mL diluted in running buffer at a flow rate of 5 μL/min contact time: 600 s, yielding a final response of ˜3000 RU. Example compounds were then serially diluted 1:1 in running buffer (10 mM HEPES, 150 mM NaCl, 0.05% T20, pH 7.5, 2% DMSO) from 30 uM to 937.5 nM and flowed over the active and reference surfaces from lowest concentration to greatest concentration in the single-cycle kinetics format, and then allowed to dissociate in running buffer for 7200 s, at 30 μL/min. Sensorgrams were solvent corrected, double-referenced, and the data fitted and analyzed in Biacore Insight Evaluation Software Version 3.0.11.15423.

[3] = test system: TNFα trimer complex to folate receptor (FOLR2); test: SPR co-engagement of compound-TNFα trimer complex to folate receptor; conditions: TNFα + 10 nM compound binding FOLR2
Protocol: The active (Flow cell 2) surfaces of a Cytiva CM5 Series S Sensor Chip functionalized with FOLR2 as described in Example 58. Example compounds were diluted to 10 nM with 50 and 100 nM TNFα single chain trimer or 150 nM and 300 nM TNFα native monomer in running buffer (10 mM HEPES, 150 mM NaCl, 0.05% T20, pH 7.5, 2% DMSO), allowed to incubate for 5 hours at 25° C. and then flowed over the active and reference surfaces for 110 s, and then allowed to dissociate in running buffer for 600 s, at a flow rate of 30 μL/min. The FOLR2 immobilized active surface and the reference surface were regenerated with a 30 s pulse of 4M MgCl2 at 30 μL/min then allowed to equilibrate 240 s. Sensorgrams were solvent corrected, double-referenced, and the data fitted and analyzed in Biacore Insight Evaluation Software Version 3.0.11.15423.

[4] = test system: THP-1 cells; test: Compound mediated uptake of TNFα-pHrodo in THP-1 cells (flow cytometry); format: cell-based; parameters: key to Uptake in THP1 cells (run) 2 / Uptake in THP1 cells (run) 3 / Uptake in THP1 cells (run) 4: + = ΔMFI less than that of I-17; ++ = ΔMFI ≈ to that of I-17; +++ = ΔMFI greater than that of I-17; conditions: ΔMFI compared with I-17, uptake at 10 μM
[5] = test system: THP-1 cells overexpressing FOLR2; test: LYTAC mediated uptake of TNFα-Alexa647 in THP-1 WT / FOLR2 overexpressing cells (ΔMFI); format: cell-based; conditions: 2 h; for uptake of TNFα compared the no compound control (DMSO): 300 nM-0.137 nM
Protocol: Hetero-bifunctional small molecule LYTACs consisting of a TNFα binding moiety, linker and folate receptor binding moiety were tested to determine if folate receptor can internalize TNFα. THP-1 cells overexpressing FOLR2 were generated by stable transduction with lentivirus encoding FOLR2-IRES-GFP. THP-1 WT and FOLR2 overexpressing cells were maintained in RPMI (Gibco #61870143) with 10% v/v FBS (VWR #89510-188) with 2 mM L-alanyl-L-glutamine dipeptide, 100 units/ml penicillin and 100 μg/ml streptomycin (Gibco #27016021). Stable FOLR2 over-expression cells were mixed at a 50:50 ratio with WT THP-1 cells and seeded in a 96 well plate at 50,000 cells in 100 μl folate-free RPMI (Gibco […]) with 10% v/v FBS, 2 mM L-alanyl-L-glutamine dipeptide, 100 units/ml penicillin and 100 μg/ml streptomycin. In a separate 96 well plate, TNFα/folate hetero-bifunctional small molecules were mixed with unmodified TNFα conjugated with Alexa647 by non-specific lysine chemistry. Small molecule LYTACs at a concentration of 600 nM (2× final concentration) in 100 μl folate-free RPMI+10% FBS were incubated at room temperature for 30 mins. The immune complex was serially diluted 3-fold to produce a dose response range from 300 nM-0.137 nM (final concentration). The TNFα/LYTAC complex mixture was transferred to the plate containing a 50:50 mixture of THP1 WT and FOLR2 over expressing cells and incubated for 2 h at 37° C. with 5% C02. Uptake in WT and FOLR2 overexpressing cells was evaluated by flow cytometry by comparing the median fluorescence intensity of […] in the GFP negative (WT) and GFP positive (FOLR2) populations and was quantified as the difference between the mean fluorescence intensities in the APC channel for the GFP positive and GFP negative populations (ΔMFI).

[6] = molecular target: TNFα (Homo sapiens (Human), UniProt P01375); test: TNFα binding assay (time-resolved FRET, biotinylated TNFα); conditions: 1 nM biotinylated TNFα, 80 nM probe, 16 hr incubation; read-out: TNF-HTRF-biotin
Method in brief: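 Time-resolved FRET displacement of 80 nM acceptor probe from 1 nM biotinylated TNFα with 0.5 nM streptavidin-Tb in 20 mM Hepes pH 7.5, 10 mM MgCl2, 0.015% Tween-20, 0.05 mg/ml BSA, 2% DMSO. Read (ex 340, em 490/520 nm) after 16 hr. Duplicate dose responses normalized to DMSO and 100 nM reference inhibitor; IC50 by 4-parameter fit.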

[7] = molecular target: T1, folate receptor beta (Homo sapiens (Human), UniProt P14207); test: Folate receptor binding assay (fluorescence polarization); conditions: 2.5 nM folate receptor beta, 2 nM FR-Cy probe, 2 hr incubation; read-out: FOLR2-FP
Method in brief: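 Fluorescence polarization competition with 2 nM folate–Cy5 probe and 2.5 nM receptor in 20 mM Hepes pH 7.5, 250 mM NaCl, Tween-20, 1% DMSO; 3-fold dilutions, 2 h incubation, ex 620/em 688 nm. Duplicates normalized to DMSO (high) and 1 μM folic acid (low); IC50 from 4-parameter fit.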

[8] = molecular target: T1, folate receptor beta; test: Folate receptor SPR assay (biotinylated folate receptor beta on streptavidin chip); format: binding; conditions: for Rmax: biotinylated folate receptor beta on streptavidin chip; for kd / Kd / kon: multi-cycle kinetics, 25° C., 1:1 model; for Kd: read-out: FOLR2Biotin - SPR Kd; for kon: pH 7.5, read-out: ka
Method in brief: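 Biotinylated receptor captured on a streptavidin SPR chip; multi-cycle kinetics at 25 °C with 8 compound concentrations (2-fold dilutions) in HEPES pH 7.5, 150 mM NaCl, 0.05% Tween 20, 2% DMSO. Association 120 s, dissociation 600 s; binding parameters from 1:1 model fit.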

[9] = molecular target: TNFα and streptavidin immobilized FOL2R (Homo sapiens (Human), UniProt P01375+P14207); test: Ternary complex SPR assay; format: binding; conditions: 10 nM compound, max response normalized to expected response; for TC 150 nM- tagless TNF Normalized: 150 nM untagged TNF; for TC 300 nM- tagless TNF Normalized: 300 nM untagged TNF
Method in brief: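 Biotinylated folate receptor beta captured at ~1800 RU on a streptavidin chip; untagged TNF preincubated 6 hr at 25° C with 10 nM compound in HEPES pH 7.5, 150 mM NaCl, 0.05% Tween 20, 2% DMSO, then injected (110 s association, 600 s dissociation). Maximum response normalized to maximum expected response per compound.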

Chain of TNFα and streptavidin immobilized FOL2R (P14207 17-230): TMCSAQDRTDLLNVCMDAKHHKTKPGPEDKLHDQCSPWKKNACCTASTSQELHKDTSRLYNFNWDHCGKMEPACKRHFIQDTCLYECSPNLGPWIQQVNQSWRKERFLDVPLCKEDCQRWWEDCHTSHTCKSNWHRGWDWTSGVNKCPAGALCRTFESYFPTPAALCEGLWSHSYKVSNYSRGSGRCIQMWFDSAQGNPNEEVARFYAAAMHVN
Chain of TNFα and streptavidin immobilized FOL2R (P01375 77-233): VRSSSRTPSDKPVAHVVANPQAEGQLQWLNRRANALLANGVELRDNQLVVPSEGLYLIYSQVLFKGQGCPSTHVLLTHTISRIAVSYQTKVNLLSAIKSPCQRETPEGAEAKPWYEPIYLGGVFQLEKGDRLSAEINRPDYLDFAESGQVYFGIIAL
T1 sequence (P14207 17-255): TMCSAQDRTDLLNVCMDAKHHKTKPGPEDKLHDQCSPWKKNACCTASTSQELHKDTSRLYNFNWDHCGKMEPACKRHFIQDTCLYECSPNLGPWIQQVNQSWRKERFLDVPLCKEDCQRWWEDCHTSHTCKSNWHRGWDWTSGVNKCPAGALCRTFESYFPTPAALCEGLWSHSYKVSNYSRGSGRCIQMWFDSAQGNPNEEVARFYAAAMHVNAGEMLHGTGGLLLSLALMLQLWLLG
Chain of FOLR2 (P14207 17-255): as above
Chain of TNFα trimer (P01375 77-233 limits assumed): as the sequence (P01375 77-233) above
Chain of TNFα (P01375 77-233): as above

Q: Which results are given for `Cc1nc2cc(F)c(-c3cnc(OCCCCCn4cc(COCCNC(=O)CC[C@H](NC(=O)c5ccc(NCc6cnc7nc(N)nc(O)c7n6)cc5)C(=O)O)nn4)nc3)nc2c(N[C@H](C)c2cc(C#N)ccc2F)c1Cl` [Compound I-15, N2-(4-(((2-amino-4-hydroxypteridin-6-yl)methyl)amino)benzoyl)-N5-(2-((1-(5-((5-(7-chloro-8-((I-1-(5-cyano-2-fluorophenyl)ethyl)amino)-3-fluoro-6-methyl-1,5-naphthyridin-2-yl)pyrimidin-2-yl)oxy)pentyl)-1H-1,2,3-triazol 4-yl)methoxy)ethyl)-L-glutamine]?
A: Kd [1]: 0.3 nM; Kd [2]: < 100 nM; co-engagement / complex formation observed on SPR [3]: complex formation observed; Uptake in THP1 cells (run) 3 [4]: +++; Uptake in THP1 cells (run) 4 ([4]; run 4): ++

Q: For `Cc1nc2cc(F)c(-c3cnc(N4CCN(C(=O)COCCOCCOCCOCCOCCOCCn5cc(CC[C@H](NC(=O)c6ccc(NCc7cnc8nc(N)nc(O)c8n7)cc6)C(=O)O)nn5)CC4)nc3)nc2c(N[C@H](C)c2cc(C#N)ccc2F)c1Cl` [Compound I-92], which “uptake of TNFα compared the no compound control (DMSO)” value [5] is on record?
A: The value was “dose-dependent uptake of TNFα”.

Q: What about the IC50 [6] of the same compound?
A: The IC50 was 20 nM.

Q: And the IC50 [7]?
A: The IC50 was 7.6 nM.

Q: What about the Rmax [8] of the same compound?
A: Its Rmax is 17.1 RU.

Q: What about the kd [8] of the same compound?
A: The kd was 8.7e-05 s⁻¹.

Q: What about the Kd [8] of the same compound?
A: The Kd was 0.00867 nM.

Q: And the kon [8]?
A: Its kon is 1e+07 M⁻¹ s⁻¹.

Q: And the “TC 60 nM taggless TNF normalized” value ([9]; 60 nM untagged TNF)?
A: Its value is 15.3%.

Q: And the “TC 150 nM- tagless TNF Normalized” value [9]?
A: Its value is 16.9%.

Q: And the “TC 300 nM- tagless TNF Normalized” value [9]?
A: Its value is 18.7%.

Q: For `Cc1nc2cc(F)c(-c3cnc(OCCCCCn4cc(CNC(=O)CC[C@H](NC(=O)c5ccc(NCc6cnc7nc(N)nc(O)c7n6)cc5)C(=O)O)nn4)nc3)nc2c(N[C@H](C)c2cc(C#N)ccc2F)c1Cl` [Compound I-14, N2-(4-(((2-amino-4-hydroxypteridin-6-yl)methyl)amino)benzoyl)-N5-((1-(5-((5-(7-chloro-8-(((R)-1-(5-cyano-2-fluorophenyl)ethyl)amino)-3-fluoro-6-methyl-1,5-naphthyridin-2-yl)pyrimidin-2-yl)oxy)pentyl)-1H-1,2,3-triazol-4-yl)methyl)-L-glutamine], which Kd [1] is on record?
A: The Kd was 0.2 nM.

Q: And the Kd [2]?
A: The Kd was < 100 nM.

Q: And the “co-engagement / complex formation observed on SPR” value [3]?
A: Its value is “complex formation observed”.

Q: And the “Uptake in THP1 cells (run) 2” value ([4]; run 2)?
A: Its value is “+”.

Q: And the “Uptake in THP1 cells (run) 3” value [4]?
A: The value was “++”.

Q: How did the “uptake of TNFα compared the no compound control (DMSO)” value [5] turn out when `Cc1nc2cc(F)c(-c3cnc(N4CCN(C(=O)COCCOCCOCCOCCOCCOCCn5cc(CC[C@H](NC(=O)c6ccc(OCc7ccc8nc(N)nc(O)c8c7)cc6)C(=O)O)nn5)CC4)nc3)nc2c(N[C@H](C)c2cc(C#N)ccc2F)c1Cl` [Compound I-87, (S)-2-(4-((2-amino-4-hydroxyquinazolin-6-yl)methoxy)benzamido)-4-(1-(20-(4-(5-(7-chloro-8-(((R)-1-(5-cyano-2-fluorophenyl)ethyl)amino)-3-fluoro-6-methyl-1,5-naphthyridin-2-yl)pyrimidin-2-yl)piperazin-1-yl)-20-oxo-3,6,9,12,15,18-hexaoxaicosyl)-1H-1,2,3-triazol-4-yl)butanoic acid] was run?
A: The value was “dose-dependent uptake of TNFα”.

Q: What about the EC50 ([5]; Homo sapiens, ΔMFI FOLR2 overexpressing vs WT THP-1 cells) of the same compound?
A: The EC50 was 15.3 nM.

Q: And the IC50 [6]?
A: The IC50 was 22 nM.

Q: What about the IC50 [7] of the same compound?
A: Its IC50 is 8 nM.

Q: What about the Rmax [8] of the same compound?
A: The Rmax was 18.7 RU.

Q: And the kd [8]?
A: Its kd is 0.000692 s⁻¹.

Q: What about the Kd [8] of the same compound?
A: Its Kd is 0.035 nM.

Q: What about the kon [8] of the same compound?
A: The kon was 1.97e+07 M⁻¹ s⁻¹.

Q: What about the “TC 150 nM- tagless TNF Normalized” value [9] of the same compound?
A: Its value is 25.7%.

Q: And the “TC 300 nM- tagless TNF Normalized” value [9]?
A: Its value is 32.8%.
